In patent publication US20060234278A1, “Sequences used to identify if a female mammal comprises a mutation in the alpha-fetoprotein sequence(S) or a partial or total deletion of the alpha-fetoprotein sequence(S)” (priority 1999, published 2006):

Columns and labels:
Type in all cases: in vivo, mouse
estrogen synthesis = assay: Serum estradiol levels of ATD-treated gestating females by RIA assay; conditions: heterozygous gestating females, daily s.c. 4 mg ATD from day 13.5 of gestation; 10 pg/ml is the RIA detection limit
Description: (§1) Females heterozygous for the Afp tm2Ibmm allele (CD1 strain, 8th backcross level) were mated with Afp tm2Ibmm homozygous males and housed under the conditions described above. They then received a daily subcutaneous injection in the neck of 4 mg of the aromatase inhibitor ATD (1, 4, 6-androstatrien-3,17-dione, Steraloids, Newport, R.I.) dissolved in propylene glycol, from the 13.5th day of gestation (day 0.5 is defined as the day of vaginal plug detection) until the end of gestation. Controls were injected with propylene glycol only. Pups were born naturally or retrieved by Caesarian operation on embryonic day 20.5. Blood from the mothers was taken from the hart and estradiol levels were measured by classical RIA assay. Fertility of female pups was tested at the age of 2-3 months. In parallel, sisters of the female pups tested were dissected at the age of 3 months and total RNA was extracted from the pituitary and the hypothalamus as described above. cDNA was obtained using the TaqMan Reverse Transcription Reagents kit (Applied Biosystems) and real time PCR was performed on the 7300 Real Time PCR System (Applied Biosystems) with the Platinum Quantitative PCR SuperMix-UDG kit (Invitrogen) and the TaqMan Gene Expression Assays (Applied Biosystems) for pituitary genes except for Egr1. […]

AFP KO females = assay: Fertility of AFP KO female pups after prenatal ATD treatment
Description: as §1

[1] = tested on: Ucp1, Isp2, Egr1, Gnrhr expression in the pituitary; assay: Real time PCR gene expression in pituitary of prenatally ATD-treated AFP KO females; conditions: prenatal ATD-treated AFP KO females (n=7)
Description: as §1

[2] = tested on: Gnrh2 gene expression in the hypothalamus; assay: Real time PCR Gnrh2 gene expression in hypothalamus of prenatally ATD-treated AFP KO females; conditions: prenatal ATD-treated AFP KO mice (n=7), normalized to Hprt
Description: as §1

SMILES: C[C@]12C=CC(=O)C=C1C=C[C@@H]1[C@@H]2CC[C@]2(C)C(=O)CC[C@@H]12 [ATD, 1,4,6-androstatrien-3,17-dione]
- Serum estradiol levels (estrogen synthesis): < 10 pg/mL
- Fertility of female pups (AFP KO females; AFP KO and heterozygous pups from ATD-injected mothers, tested at 2-3 months, 8 KO and 17 heterozygous pups tested): fertile
- Litter size (AFP KO females; litters born to prenatally ATD-treated AFP KO and heterozygous females): normal size
- Pituitary gene expression levels vs untreated KO females ([1]; normalized to Hprt, p=0.044): statistically different from those of the untreated KO females
- Pituitary gene expression levels vs heterozygous untreated females ([1]; p=0.508, except Isp2 (p=0.014)): not statistically different from those of the heterozygous, untreated females
- Gnrh2 expression level in hypothalamus [2]: not increased
